Read-outs that look alike come from different tables or passages of the source.
Experiments:
[1] = Transepithelial transport assay in parental MDCK-II monolayers; assay type: in vitro ADME, canine; conditions: dog, nitroxynil 10 µM, no Ko143, read-out: Relative efflux transport ratio (BA/AB)
Experimental: Parental Madin–Darby canine kidney epithelial cells (MDCK–II) and their subclones transduced with murine (mAbcg2) and human (hABCG2) variants of ABCG2 were kindly provided by Dr. A. H. Schinkel (Netherlands Cancer Institute). Transduced MDCK–II cells with the ovine (oABCG2) and bovine (bABCG2) variants were previously generated by our group. Cells were cultured as described elsewhere.
Transepithelial transport assays were carried out as previously described with minor variations, using Hanks’ balanced salt solution (Sigma-Aldrich) supplemented with HEPES (25 mM), with or without Ko143 (1 μM), and containing or not nitroxynil 10 μM. […] At the end of the experiment, confluence of the monolayer was measured with the previously described Lucifer Yellow permeability test, with minor modifications. The appearance of nitroxynil in the opposite side of the well was measured by HPLC as later described. Active transport was expressed as relative efflux transport ratio (apically directed transport percentage divided by the basolaterally directed translocation percentage) at 4 h and referred to the initial concentration. […]
Waters 2695 separation module and Waters 2998 UV photodiode array detector set at 270 nm were used for samples analysis. […] Limit of detection (LOD) and quantification (LOQ) were calculated as previously described. […]

murine Abcg2 [2] = test: Milk secretion experiment in lactating wild-type and Abcg2−/− female mice; assay type: in vivo; conditions: FVB/N, mouse, intravenous, lactating Abcg2−/− female mice, 30 min after 10 mg/kg i.v.
Experimental: (§1) All in vivo experiments were carried out using wild-type and Abcg2^−/− mice aged between 8 and 17 weeks, all of >99% FVB/N genetic background, generated and gently supplied by A. H. Schinkel (Netherlands Cancer Institute). Mice were housed and handled complying with institutional and ARRIVE guidelines and European legislation (EU Directive 2010/63/EU for animal experiments). Additionally, experimental procedures were approved by the Animal Care and Use Committee of the University of León and the Junta de Castilla y León (ULE_011_2019).
(§2) Pups of approximately 10 days old were separated from their mothers (wild-type (n = 10) and Abcg2^−/− (n = 11) female mice) 3 h before beginning the experiment. Milk secretion experiments were performed as previously described. Nitroxynil solution was prepared by diluting Distomicide® (250 mg/mL) commercial solution in saline and administered at a dose of 150 μL/30 g bw into the tail vein under anesthesia with isoflurane. An amount of 200 μL oxytocin (1 IU/mL) was administrated subcutaneously 10 min before milk collection. Blood and milk samples were collected from retro-orbital sinus and mammary gland, respectively, 30 min after nitroxynil administration.
(§3) Plasma, milk and tissue samples from each animal were individually processed and analyzed without pooling, while samples from transport assays were not processed. Tissue samples were homogenized in a mixture of 50% water/50% methanol HCl 0.5% (v/v); 1 mL solution per 0.1 g tissue. The entire amount of collected milk (74.7–295.1 mg) and 100 μL plasma and tissue homogenates were processed. To each sample, 10 μL of a nitrofurantoin solution (10 μg/mL for plasma and milk and 2 μg/mL for homogenized tissues) was added as an internal standard and 150 μL acetonitrile was used to precipitate the proteins. The mixture was vortexed horizontally for 15 min and centrifugated at 10,000× g for 5 min at 4 °C. Supernatant was transferred to a new tube and dried at 40 °C under N2 stream. Samples were reconstituted in 100 μL of mobile phase and 50 μL was injected into HPLC. Standards were subjected to the same procedures as samples.
(§4) Waters 2695 separation module and Waters 2998 UV photodiode array detector set at 270 nm were used for samples analysis. Chromatographic conditions for nitroxynil detection were based on previously described methods, with minor modifications. Chromatographic separation was achieved on a reverse-phase column (Synergy 4 μm Hydro–RP 80 Å, 250 × 4.60 mm; Phenomenex®, Torrance, CA, USA) using an isocratic binary mobile phase consisting of 25 mM potassium phosphate monobasic (KH2PO4), pH 4: acetonitrile (70:30 for culture samples and 80:20 for animal samples) at a flow rate of 1 mL/min. Autosampler and column temperature were 4 °C and 40 °C, respectively. Limit of detection (LOD) and quantification (LOQ) were calculated as previously described. For cell culture samples, LOD and LOQ were 0.003 μg/mL and 0.007 μg/mL, respectively. For in vivo samples, LOD was in the range of 0.01–0.07 μg/mL and LOQ in the range of 0.03–0.15 μg/mL.

murine Abcg2 [3] = system: T1, murine Abcg2; test: as above; assay type: in vivo; conditions: FVB/N, mouse, intravenous, lactating wild-type female mice, 30 min after 10 mg/kg i.v.
T1 construct: from tissue; host or cells: whole animal: wild-type vs Abcg2-/- mice, >99% FVB/N background
Experimental: as §1, §2, §3, §4

[4] = milk and plasma, read-out: Milk-to-plasma ratio
[5] = milk, read-out: Milk concentration
[6] = plasma, read-out: Plasma concentration

In the case of `N#Cc1cc(I)c(O)c([N+](=O)[O-])c1` [nitroxynil], the efflux ratio at 4 h, 10 µM [1] is reported as 1.04 ± 0.03, the Kp at 30 min (murine Abcg2 [2]; [4]) is reported as 0.1 ± 0.03 and the concentration at 30 min (murine Abcg2 [2]; [5]) is reported as 8.1 ± 1 µg/mL. It also gave a concentration at 30 min (murine Abcg2 [2]; [6]) of 62.8 ± 13.9 µg/mL, a Kp at 30 min (murine Abcg2 [3]; [4]) of 0.3 ± 0.1 and a concentration at 30 min (murine Abcg2 [3]; [5]) of 15.7 ± 6.3 µg/mL. For the same compound, the concentration at 30 min (murine Abcg2 [3]; [6]) was 58.8 ± 11.2 µg/mL.
